PMC5687316 (Acta Pharmaceutica Sinica. B, 2017)
Structures can show the parent of a compound that is named as a salt.

Assays:
[1] = Maximum plasma concentration in humans after oral administration; details: human, calculated as Cmax × fu; icotinib 125 mg × 3 daily, erlotinib 150 mg
UGT1A1 in HLMs = biological target: T1, UGT1A1 in HLMs (Homo sapiens, UniProt P22309); assay type: biochemical; details: for Inhibition type: HLM, Lineweaver-Burk and Dixon plots; for time dependence of UGT1A1 inhibition: data not shown; for phase II metabolites of the inhibitor in the incubations: UGT1A1/HLM incubations with UDPGA
T1 sequence (P22309 26-533): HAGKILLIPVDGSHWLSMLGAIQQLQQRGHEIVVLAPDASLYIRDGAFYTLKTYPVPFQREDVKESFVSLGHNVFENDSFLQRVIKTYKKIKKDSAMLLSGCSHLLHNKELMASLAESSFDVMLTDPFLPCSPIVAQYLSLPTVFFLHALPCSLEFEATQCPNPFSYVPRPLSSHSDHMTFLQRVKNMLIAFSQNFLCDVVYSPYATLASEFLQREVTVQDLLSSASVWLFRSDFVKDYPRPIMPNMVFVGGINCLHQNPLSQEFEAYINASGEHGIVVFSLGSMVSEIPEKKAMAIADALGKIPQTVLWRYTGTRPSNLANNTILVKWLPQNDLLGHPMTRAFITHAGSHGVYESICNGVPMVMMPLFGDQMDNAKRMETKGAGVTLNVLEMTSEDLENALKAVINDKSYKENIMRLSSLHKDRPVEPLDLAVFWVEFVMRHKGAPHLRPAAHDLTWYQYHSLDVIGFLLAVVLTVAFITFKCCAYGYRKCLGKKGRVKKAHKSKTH

UGT1A1 = biological target: T2, UGT1A1 (Homo sapiens, UniProt P22309); experiment: Inhibition of NCHN-4-O-glucuronidation in recombinant human UGT1A1; assay type: biochemical; details: for activity at 50 min, 10 µmol/L: human, recombinant human UGT1A1, pH 7.4, probe NCHN (NCHN-4-O-glucuronidation); for Inhibition type: recombinant human UGT1A1, Lineweaver-Burk and Dixon plots
T2 sequence (P22309 26-533): T1 sequence (P22309 26-533)

[2] = Nonspecific binding to HLMs; assay type: in vitro ADME, human; details: HLMs 0.2 mg/mL

Cmax,u [1] [nM]	fraction unbound (Binding to human plasma)	Inhibition type (UGT1A1 in HLMs)	time dependence of UGT1A1 inhibition (UGT1A1 in HLMs; HLMs)	phase II metabolites of the inhibitor in the incubations (UGT1A1 in HLMs)	activity at 50 min, 10 µmol/L (UGT1A1) [%]	Inhibition type (UGT1A1)	binding to HLMs [2]	Ki (UGT1A1 in HLMs) [µM]	fold difference in Ki between icotinib and erlotinib (UGT1A1 in HLMs; HLMs, NCHN-O-glucuronidation)	IC50 (UGT1A1 in HLMs; IC50, HLM 0.2 mg/mL, NCHN-4-O-glucuronidation) [µM]	Ki (UGT1A1) [µM]	IC50 (UGT1A1; IC50, recombinant human UGT1A1 0.06 mg/mL, NCHN-4-O-glucuronidation) [µM]	Compound
550	0.09	Noncompetitive	not time-dependent	no phase II metabolites	19	Noncompetitive	negligible binding						C#Cc1cccc(Nc2ncnc3cc(OCCOC)c(OCCOC)cc23)c1 [Erlotinib]
530	0.11	Noncompetitive	not time-dependent	no phase II metabolites	36	Noncompetitive	negligible binding	8.55	about 7 fold	5.15 ± 0.28	10	8.76 ± 0.78	C#Cc1cccc(Nc2ncnc3cc4c(cc23)OCCOCCOCCO4)c1 [Icotinib, 4-[(3-ethynylphenyl)amino]-6,7-benzo-12-crown-4-quinazoline hydrochloride]
